Laboratory results as given in ChEMBL document CHEMBL2385047, “Synthesis and antifungal evaluation of pentyloxyl-diphenylisoxazoloyl pneumocandins and echinocandins” (Bioorg Med Chem Lett, 2013).
Converted amounts (≈) assume the structure as drawn.

Experiments:
Candida albicans [1] = experiment: Antifungal activity against Candida albicans CAI4-R1 assessed as growth inhibition after 24 hrs by NCCLS broth microdilution method; type: functional; settings: CAI4-R1, 24 h
[2] = Inhibition of caspofungin-resistant Candida albicans CLY-16997 1,3-beta-D-glucan synthase component FKS1/FKS1 S645P mutant using UDP[6,3H]-glucose as substrate after 60 mins by liquid scintillation counting analysis
[3] = Inhibition of caspofungin-resistant Candida albicans CLY-16996 1,3-beta-D-glucan synthase component FKS1/FKS1 S645F mutant using UDP[6,3H]-glucose as substrate after 60 mins by liquid scintillation counting analysis
Escherichia coli = experiment: Antibacterial activity against Escherichia coli ATCC 25922 assessed as growth inhibition after 24 hrs by NCCLS broth microdilution method; type: functional; settings: ATCC 25922, 24 h, read-out: MIC100
Cryptococcus neoformans = experiment: Antifungal activity against capsular wild type Cryptococcus neoformans MY2061 assessed as growth inhibition after 24 hrs by NCCLS broth microdilution method; type: functional; settings: MY2061, 24 h, read-out: MIC100
Candida albicans [4] = experiment: Antifungal activity against wild type Candida albicans MY1055 assessed as growth inhibition after 24 hrs by NCCLS broth microdilution method; type: functional; settings: MY1055, 24 h
Candida albicans [5] = experiment: Antifungal activity against wild type Candida albicans CAI4 assessed as growth inhibition after 24 hrs by NCCLS broth microdilution method; type: functional; settings: CAI4, 24 h
Clavispora lusitaniae = experiment: Antifungal activity against wild type Candida lusitaniae MY1396 assessed as growth inhibition after 24 hrs by NCCLS broth microdilution method; type: functional; settings: MY1396, 24 h
Beta-1,3-glucan synthase = target: T1, Beta-1,3-glucan synthase (Candida albicans, UniProt O13383); experiment: Inhibition of wild type Candida albicans MY1055 1,3-beta-D-glucan synthase using UDP[6,3H]-glucose as substrate after 60 mins by liquid scintillation counting analysis
T1 sequence (O13383 whole entry): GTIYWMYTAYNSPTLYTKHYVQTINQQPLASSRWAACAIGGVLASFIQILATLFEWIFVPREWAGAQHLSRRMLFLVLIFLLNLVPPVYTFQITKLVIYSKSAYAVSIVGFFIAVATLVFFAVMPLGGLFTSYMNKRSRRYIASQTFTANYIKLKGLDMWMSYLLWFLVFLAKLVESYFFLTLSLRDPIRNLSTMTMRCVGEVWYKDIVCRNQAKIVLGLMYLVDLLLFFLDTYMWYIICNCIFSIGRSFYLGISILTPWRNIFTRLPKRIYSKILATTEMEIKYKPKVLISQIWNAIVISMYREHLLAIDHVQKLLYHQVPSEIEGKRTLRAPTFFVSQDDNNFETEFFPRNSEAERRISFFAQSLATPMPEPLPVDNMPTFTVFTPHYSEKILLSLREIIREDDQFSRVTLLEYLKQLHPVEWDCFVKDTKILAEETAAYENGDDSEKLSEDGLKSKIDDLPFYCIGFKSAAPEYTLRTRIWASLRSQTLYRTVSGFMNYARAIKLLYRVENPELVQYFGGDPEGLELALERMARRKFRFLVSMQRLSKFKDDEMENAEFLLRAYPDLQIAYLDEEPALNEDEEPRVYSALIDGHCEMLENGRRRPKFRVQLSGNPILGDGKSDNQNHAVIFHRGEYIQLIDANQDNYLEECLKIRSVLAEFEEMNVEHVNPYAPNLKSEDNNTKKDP

[6] = test system: Meyerozyma guilliermondii; experiment: Antifungal activity against wild type Candida guilliermondii CLY308 assessed as growth inhibition after 24 hrs by NCCLS broth microdilution method; type: functional; settings: CLY308, 24 h
Candida albicans [7] = experiment: Antifungal activity against wild type Candida albicans MY1055 assessed as growth inhibition after 24 hrs by NCCLS broth microdilution method in presence of human serum; type: functional; settings: MY1055, 24 h
Pichia kudriavzevii = experiment: Antifungal activity against wild type Candida krusei CLY549 assessed as growth inhibition after 24 hrs by NCCLS broth microdilution method; type: functional; settings: CLY549, 24 h
Candida albicans [8] = experiment: Antifungal activity against Candida albicans NR3 assessed as growth inhibition after 24 hrs by NCCLS broth microdilution method; type: functional; settings: NR3, 24 h
Candida albicans [9] = experiment: Antifungal activity against caspofungin-resistant Candida albicans CLY-16996 harboring 1,3-beta-D-glucan synthase component FKS1/FKS1 S645F mutant assessed as growth inhibition after 24 hrs by NCCLS broth microdilution method; type: functional; settings: CLY-16996, 24 h
Candida albicans [10] = experiment: Antifungal activity against Candida albicans MY1055 infected in DBA/2 mouse assessed as reduction of log CFU in kidney administered 30 mins as ip tid post infection measured after 24 hrs; type: functional
Aspergillus fumigatus = experiment: Antifungal activity against Aspergillus fumigatus MF5668 caspofungin spontaneous resistance mutant assessed as growth inhibition after 24 hrs by NCCLS broth microdilution method; type: functional; settings: MF5668, 24 h
Nakaseomyces glabratus = experiment: Antifungal activity against wild type Candida glabrata MY1381 assessed as growth inhibition after 24 hrs by NCCLS broth microdilution method; type: functional; settings: MY1381, 24 h
Staphylococcus aureus = experiment: Antibacterial activity against methicillin-sensitive Staphylococcus aureus MB2865 assessed as growth inhibition after 24 hrs by NCCLS broth microdilution method; type: functional; settings: MB2865, 24 h, read-out: MIC100
Candida parapsilosis = experiment: Antifungal activity against wild type Candida parapsilosis ATCC 22019 assessed as growth inhibition after 24 hrs by NCCLS broth microdilution method; type: functional; settings: Lodderomyces parapsilosis, ATCC 22019, 24 h

## CC[C@H](C)C[C@H](C)CCCCCCCCC(=O)N[C@H]1C[C@@H](O)[C@@H](NCCN)NC(=O)[C@@H]2[C@@H](O)CCN2C(=O)[C@H]([C@H](O)CCN)NC(=O)[C@H]([C@H](O)[C@@H](O)c2ccc(O)cc2)NC(=O)[C@@H]2C[C@@H](O)CN2C(=O)[C@H]([C@@H](C)O)NC1=O [CASPOFUNGIN]
Candida albicans [1]
  MIC80: 1 µg/mL (≈ 0.915 µM)
Candida albicans [1]; read-out: MIC100
  MIC: > 32 µg/mL
[2]
  IC50: > 9.2 µM
[3]
  IC50: > 92 µM
Escherichia coli
  MIC: > 32 µg/mL
Cryptococcus neoformans
  MIC: 16 µg/mL (≈ 14.6 µM)
Candida albicans [4]
  MIC80: < 0.03 µg/mL
Candida albicans [4]; read-out: MIC100
  MIC: 0.06 µg/mL (≈ 0.0549 µM)
Candida albicans [5]
  MIC80: < 0.03 µg/mL
Candida albicans [5]; read-out: MIC100
  MIC: 0.125 µg/mL (≈ 0.114 µM)
Clavispora lusitaniae
  MIC80: < 0.03 µg/mL
Clavispora lusitaniae; read-out: MIC100
  MIC: 0.5 µg/mL (≈ 0.457 µM)
Beta-1,3-glucan synthase
  IC50: 0.00024 µM
[6]
  MIC80: 0.25 µg/mL (≈ 0.229 µM)
[6]; read-out: MIC100
  MIC: 1 µg/mL (≈ 0.915 µM)
Candida albicans [7]
  MIC80: 0.125 µg/mL
Candida albicans [7]; read-out: MIC100
  MIC: 8 µg/mL
Pichia kudriavzevii
  MIC80: 0.25 µg/mL (≈ 0.229 µM)
Pichia kudriavzevii; read-out: MIC100
  MIC: 2 µg/mL (≈ 1.83 µM)
Candida albicans [8]
  MIC80: 2 µg/mL (≈ 1.83 µM)
Candida albicans [8]; read-out: MIC100
  MIC: > 32 µg/mL
Candida albicans [9]
  MIC: 64 µg/mL (≈ 58.5 µM)
Candida albicans [10]
  ED90: 0.02 mg/kg/day
  ED99: 0.15 mg/kg/day
Aspergillus fumigatus
  MIC80: < 0.03 µg/mL
Aspergillus fumigatus; read-out: MEC
  minimal effective concentration: > 32 µg/mL
Nakaseomyces glabratus
  MIC80: 0.06 µg/mL (≈ 0.0549 µM)
Nakaseomyces glabratus; read-out: MIC100
  MIC: 0.25 µg/mL (≈ 0.229 µM)
Staphylococcus aureus
  MIC: 32 µg/mL (≈ 29.3 µM)
Candida parapsilosis
  MIC80: 0.25 µg/mL (≈ 0.229 µM)
Candida parapsilosis; read-out: MIC100
  MIC: > 32 µg/mL
